What was measured:
[1] = Formation of 1,5-cz-[M(Lig)] from Lig and M^III ions (metal dependent click-zip) (Charts 4, 5); format: physicochemical; conditions: for conversion to 1,5-cz-[M(Lig)], Bi^III: 4% DMSO in MOPS/NaOH buffer pH 7.0, TD728 in 50% i-PrOH; for conversion to 1,5-cz-[M(Lig)], Ir^III / conversion to 1,5-cz-[M(Lig)], Ru^III: 50% i-PrOH in MOPS/NaOH buffer pH 7.0; for conversion to 1,5-cz-[M(Lig)], Sc^III / conversion to 1,5-cz-[M(Lig)], Y^III: MOPS/NaOH buffer pH 7.0, TD728, TD827 in 50% i-PrOH; for conversion to 1,5-cz-[M(Lig)], Y^III: TD714 sum of two diastereoisomers
[2] = Formation of 1,5-cz-[M(Lig)] from Lig and M^II ions (metal dependent click-zip) (Charts 6, 7); format: physicochemical; conditions: for conversion to 1,5-cz-[M(Lig)], Pt^II: 50% i-PrOH in MOPS/NaOH buffer pH 7.0; for conversion to 1,5-cz-[M(Lig)], Ca^II / conversion to 1,5-cz-[M(Lig)], Cd^II / conversion to 1,5-cz-[M(Lig)], Mn^II / conversion to 1,5-cz-[M(Lig)], Pb^II / conversion to 1,5-cz-[M(Lig)], Pd^II: MOPS/NaOH buffer pH 7.0, TD728 in 50% i-PrOH
[3] = Formation of 1,5-cz-[Ln(Lig)] from Lig and Ln^III ions (metal dependent click-zip), MOPS/NaOH buffer pH 7.0, analytical HPLC (Charts 1, 2)
[4] = 1 hour at 80° C., TD714 sum of two diastereoisomers
[5] = after 1 week at 80° C., 50% i-PrOH in aq. MOPS/NaOH Buffer pH 7.0
[6] = after 1 hour at 80° C., 50% i-PrOH in aq. MOPS/NaOH Buffer pH 7.0
[7] = after 1 week at 80° C., MOPS/NaOH buffer pH 7.0

CC(C)[Si](C#Cc1cccc(CN2CCN(CC(=O)O)CCN(Cc3cccc(CN=[N+]=[N-])n3)CCN(CC(=O)O)CC2)n1)(C(C)C)C(C)C [TD728]
conversion to 1,5-cz-[M(Lig)], Bi^III ([1]; 1 week at 80° C.): 29%
conversion to 1,5-cz-[M(Lig)], Ir^III ([1]; 1 week at 80° C.): 0%
conversion to 1,5-cz-[M(Lig)], Ru^III ([1]; 1 week at 80° C.): 0%
conversion to 1,5-cz-[M(Lig)], Sc^III ([1]; 1 week at 80° C.): 2%
conversion to 1,5-cz-[M(Lig)], Y^III ([1]; 1 week at 80° C.): 50%
conversion to 1,5-cz-[M(Lig)], Bi^III ([1]; 1 hour at 80° C.): 5%
conversion to 1,5-cz-[M(Lig)], Ir^III ([1]; 1 hour at 80° C.): 0%
conversion to 1,5-cz-[M(Lig)], Ru^III ([1]; 1 hour at 80° C.): 0%
conversion to 1,5-cz-[M(Lig)], Sc^III ([1]; 1 hour at 80° C.): 0%
conversion to 1,5-cz-[M(Lig)], Y^III ([1]; 1 hour at 80° C.): 1%
conversion to 1,5-cz-[M(Lig)], Pt^II ([2]; 1 week at 80° C.): 0%
conversion to 1,5-cz-[M(Lig)], Ca^II ([2]; 1 week at 80° C.): 37%
conversion to 1,5-cz-[M(Lig)], Cd^II ([2]; 1 week at 80° C.): 36%
conversion to 1,5-cz-[M(Lig)], Mn^II ([2]; 1 week at 80° C.): 1%
conversion to 1,5-cz-[M(Lig)], Pb^II ([2]; 1 week at 80° C.): 14%
conversion to 1,5-cz-[M(Lig)], Pd^II ([2]; 1 week at 80° C.): 1%
conversion to 1,5-cz-[M(Lig)], Pt^II ([2]; 1 hour at 80° C.): 0%
conversion to 1,5-cz-[M(Lig)], Ca^II ([2]; 1 hour at 80° C.): 0%
conversion to 1,5-cz-[M(Lig)], Mn^II ([2]; 1 hour at 80° C.): 0%
conversion to 1,5-cz-[M(Lig)], Pb^II ([2]; 1 hour at 80° C.): 0%
conversion to 1,5-cz-[M(Lig)], Pd^II ([2]; 1 hour at 80° C.): 1%
conversion to 1,5-cz-[M(Lig)], Cd^II [2, 4]: 1%
conversion to 1,5-cz-[Ln(Lig)], Ce^III [3, 5]: 5%
conversion to 1,5-cz-[Ln(Lig)], Ce^III [3, 6]: 0%
conversion to 1,5-cz-[Ln(Lig)], Dy^III [3, 5]: 54%
conversion to 1,5-cz-[Ln(Lig)], Dy^III [3, 6]: 1%
conversion to 1,5-cz-[Ln(Lig)], Er^III [3, 5]: 72%
conversion to 1,5-cz-[Ln(Lig)], Er^III [3, 6]: 1%
conversion to 1,5-cz-[Ln(Lig)], Eu^III [3, 5]: 35%
conversion to 1,5-cz-[Ln(Lig)], Eu^III [3, 6]: 0%
conversion to 1,5-cz-[Ln(Lig)], Gd^III [3, 5]: 32%
conversion to 1,5-cz-[Ln(Lig)], Gd^III [3, 6]: 0%
conversion to 1,5-cz-[Ln(Lig)], Ho^III [3, 5]: 60%
conversion to 1,5-cz-[Ln(Lig)], Ho^III [3, 6]: 1%
conversion to 1,5-cz-[Ln(Lig)], La^III [3, 5]: 13%
conversion to 1,5-cz-[Ln(Lig)], La^III [3, 6]: 0%
conversion to 1,5-cz-[Ln(Lig)], Lu^III [3, 5]: 88%
conversion to 1,5-cz-[Ln(Lig)], Lu^III [3, 6]: 2%
conversion to 1,5-cz-[Ln(Lig)], Nd^III [3, 5]: 24%
conversion to 1,5-cz-[Ln(Lig)], Nd^III [3, 6]: 0%
conversion to 1,5-cz-[Ln(Lig)], Pr^III [3, 5]: 23%
conversion to 1,5-cz-[Ln(Lig)], Pr^III [3, 6]: 0%
conversion to 1,5-cz-[Ln(Lig)], Sm^III [3, 5]: 34%
conversion to 1,5-cz-[Ln(Lig)], Sm^III [3, 6]: 0%
conversion to 1,5-cz-[Ln(Lig)], Tb^III [3, 5]: 49%
conversion to 1,5-cz-[Ln(Lig)], Tb^III [3, 6]: 0%
conversion to 1,5-cz-[Ln(Lig)], Tm^III [3, 5]: 84%
conversion to 1,5-cz-[Ln(Lig)], Tm^III [3, 6]: 1%
conversion to 1,5-cz-[Ln(Lig)], Yb^III [3, 5]: 88%
conversion to 1,5-cz-[Ln(Lig)], Yb^III [3, 6]: 2%

C#Cc1cccc(CN2CCN(CC(=O)O)CCN(Cc3cc(Cl)cc(CN=[N+]=[N-])n3)CCN(CC(=O)O)CC2)n1 [TD764]
conversion to 1,5-cz-[M(Lig)], Bi^III ([1]; 1 week at 80° C.): 85%
conversion to 1,5-cz-[M(Lig)], Sc^III ([1]; 1 week at 80° C.): 5%
conversion to 1,5-cz-[M(Lig)], Y^III ([1]; 1 week at 80° C.): 95%
conversion to 1,5-cz-[M(Lig)], Bi^III ([1]; 1 hour at 80° C.): 31%
conversion to 1,5-cz-[M(Lig)], Ca^II ([2]; 1 week at 80° C.): 95%
conversion to 1,5-cz-[M(Lig)], Cd^II ([2]; 1 week at 80° C.): 96%
conversion to 1,5-cz-[M(Lig)], Mn^II ([2]; 1 week at 80° C.): 35%
conversion to 1,5-cz-[M(Lig)], Pb^II ([2]; 1 week at 80° C.): 37%
conversion to 1,5-cz-[M(Lig)], Pd^II ([2]; 1 week at 80° C.): 9%
conversion to 1,5-cz-[M(Lig)], Ca^II ([2]; 1 hour at 80° C.): 16%
conversion to 1,5-cz-[M(Lig)], Mn^II ([2]; 1 hour at 80° C.): 1%
conversion to 1,5-cz-[M(Lig)], Pb^II ([2]; 1 hour at 80° C.): 1%
conversion to 1,5-cz-[M(Lig)], Pd^II ([2]; 1 hour at 80° C.): 10%
conversion to 1,5-cz-[M(Lig)], Cd^II [2, 4]: 53%
conversion to 1,5-cz-[Ln(Lig)], Ce^III [3, 7]: 20%
conversion to 1,5-cz-[Ln(Lig)], Dy^III [3, 7]: 93%
conversion to 1,5-cz-[Ln(Lig)], Er^III [3, 7]: 95%
conversion to 1,5-cz-[Ln(Lig)], Eu^III [3, 7]: 79%
conversion to 1,5-cz-[Ln(Lig)], Gd^III [3, 7]: 86%
conversion to 1,5-cz-[Ln(Lig)], Ho^III [3, 7]: 94%
conversion to 1,5-cz-[Ln(Lig)], La^III [3, 7]: 25%
conversion to 1,5-cz-[Ln(Lig)], Lu^III [3, 7]: 96%
conversion to 1,5-cz-[Ln(Lig)], Nd^III [3, 7]: 50%
conversion to 1,5-cz-[Ln(Lig)], Pr^III [3, 7]: 35%
conversion to 1,5-cz-[Ln(Lig)], Sm^III [3, 7]: 73%
conversion to 1,5-cz-[Ln(Lig)], Tb^III [3, 7]: 91%
conversion to 1,5-cz-[Ln(Lig)], Tm^III [3, 7]: 96%
conversion to 1,5-cz-[Ln(Lig)], Yb^III [3, 7]: 96%

From patent US20250147039A1, “Compounds for complexation of rare earth elements and/or s-, p-, d- block metals, their coordination compounds, peptide conjugates, method of their preparation and use thereof” (USTAV ORGANICKE CHEMIE A BIOCHEMIE AV CR V.V.I., priority 2021, published 2025)
